For experiment [1], the system named is FAF1 protein secretion in SH-SY5Y cells overexpressing FAF1. Briefly: Secretion of FAF1 protein into culture medium after Brefeldin A treatment (ER-Golgi pathway), Western blotting. The experiment is classed as cell-based, human. The note with it: 10 μM, 24 hours, serum-free DMEM, SH-SY5Y cells transfected with 3x Flag tag-FAF1 vector, FIG. 2b. Here is the method: (§1) Particularly, SH-SY5Y cells were aliquoted into 60 mm culture dishes at the density of 5×10^5 cells/dish, and subcultured in DMEM (Dulbecco/s Modified Eagle's Medium) supplemented with antibiotics and 10% FBS (fetal bovine serum) under the conditions of 37° C. and 5% CO2 for 24 hours. The cultured SH-SY5Y cells were transfected with 2 μg of 3x Flag tag-FAF1 expression vector to overexpress FAF1 protein, cultured for 24 hours, and then washed with PPS buffer. Thereafter, the medium was replaced with serum-free DMEM (Dulbecco/s Modified Eagle's Medium), and the cells were treated with 10 μM Brefeldin A (BFA), a compound that inhibits protein secretion through the ER-Golgi pathway, and further cultured in an incubator for 24 hours. The medium was transferred to a 15 ml tube and centrifuged at 1500 rpm for 2 minutes to obtain a supernatant. The obtained supernatant was placed in Amicon Ultra-4 Centrifugal Filter, and centrifuged again at 4000×g, 4° C. for 15 minutes. The protein filtered by the filter was analyzed by Western blotting.

Experiment [2] shares this test system. The experiment can be described thus: Secretion of FAF1 protein into culture medium after treatment with compounds that increase or decrease exosome secretion, Western blotting. The class given is cell-based, human. Particulars: 10 μM, 24 hours, serum-free DMEM, SH-SY5Y cells transfected with 3x Flag tag-FAF1 vector, FIG. 3. Here is the method: as §1, with “PBS” for “PPS”, “Monensin” for “Brefeldin A (BFA), a”, “to increase exosome” for “that inhibits protein”, “and 10 μM GW4869 compound to decrease exosome secretion,” for “through the ER-Golgi pathway,”, “cultured” for “cultured in an incubator”

“Also recorded” adds a separate entry of the source.

For `C[C@H]1CCC/C=C/[C@@H]2C[C@H](O)C[C@H]2[C@H](O)/C=C/C(=O)O1` [Brefeldin A], the “expression level of FAF1 protein (secreted into culture medium) versus group not treated” value in experiment [1] is listed as “constant; also recorded: no difference”.
Turning to `O=C(/C=C/c1ccc(/C=C/C(=O)Nc2ccc(C3=NCCN3)cc2)cc1)Nc1ccc(C2=NCCN2)cc1` [GW4869], in experiment [2], the “secretion amount of FAF1 compared to control group” value is listed as “decreased”.
As for `CC[C@@]1([C@@H]2O[C@@H]([C@H]3O[C@@](O)(CO)[C@H](C)C[C@@H]3C)C[C@@H]2C)CC[C@H]([C@]2(C)CC[C@]3(C[C@H](O)[C@@H](C)[C@@H]([C@@H](C)[C@@H](OC)[C@H](C)C(=O)O)O3)O2)O1` [Monensin], the “secretion amount of FAF1 compared to control group” value in experiment [2] is listed as “significantly increased”.

Values taken from US20220214361A1, “Method for Screening Candidate Drug for Treating Degenerative Brain Diseases” (THE INDUSTRY & ACADEMIC COOPERATION IN CHUNGNAM NATIONAL …, priority 2019, published 2022).
